Source: patent publication US9062078B2, “Substituted 7-azabicyles and their use as orexin receptor modulators” (priority 2013, dated 2015)
Like-named read-outs stand apart in the source and are kept apart here.

Columns and labels:
rat orexin 1 receptor = rat orexin 1 receptor (Rattus norvegicus, UniProt P56718); test: Rat orexin 1 receptor radioligand binding (competitive, [3H]-SB674042, HEK293 cell preparations); conditions: read-out: rOX1 Ki (nm)
human orexin 1 receptor = human orexin 1 receptor (Homo sapiens (Human), UniProt O43613); test: Human orexin 1 receptor radioligand binding (competitive, [3H]-SB674042, CHO cell preparations); conditions: read-out: hOX1 Ki (nm)
human orexin 2 receptor = human orexin 2 receptor (Homo sapiens (Human), UniProt O43614); test: Human orexin 2 receptor radioligand binding (competitive, [3H]-EMPA, HEK293 cell preparations); conditions: human orexin 2 receptor, [3H]-EMPA competition binding; read-out: hOX2 Ki (nm)
[1] = rat orexin 1 receptor, [3H]-SB674042 competition binding
[2] = human orexin 1 receptor, [3H]-SB674042 competition binding

Sequence of human orexin 2 receptor (O43614 whole entry): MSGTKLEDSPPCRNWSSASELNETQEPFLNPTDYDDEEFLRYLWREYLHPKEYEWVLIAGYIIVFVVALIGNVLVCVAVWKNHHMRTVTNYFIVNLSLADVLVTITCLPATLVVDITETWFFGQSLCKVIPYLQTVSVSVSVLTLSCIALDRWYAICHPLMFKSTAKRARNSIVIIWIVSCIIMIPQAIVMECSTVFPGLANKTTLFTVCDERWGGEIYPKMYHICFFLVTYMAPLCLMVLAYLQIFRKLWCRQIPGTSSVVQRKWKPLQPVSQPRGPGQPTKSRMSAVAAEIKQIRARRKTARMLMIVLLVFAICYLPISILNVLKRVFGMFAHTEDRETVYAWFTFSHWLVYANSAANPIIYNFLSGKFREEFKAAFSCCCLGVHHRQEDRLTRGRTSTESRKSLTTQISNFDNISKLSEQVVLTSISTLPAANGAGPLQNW
Sequence of human orexin 1 receptor (O43613 whole entry): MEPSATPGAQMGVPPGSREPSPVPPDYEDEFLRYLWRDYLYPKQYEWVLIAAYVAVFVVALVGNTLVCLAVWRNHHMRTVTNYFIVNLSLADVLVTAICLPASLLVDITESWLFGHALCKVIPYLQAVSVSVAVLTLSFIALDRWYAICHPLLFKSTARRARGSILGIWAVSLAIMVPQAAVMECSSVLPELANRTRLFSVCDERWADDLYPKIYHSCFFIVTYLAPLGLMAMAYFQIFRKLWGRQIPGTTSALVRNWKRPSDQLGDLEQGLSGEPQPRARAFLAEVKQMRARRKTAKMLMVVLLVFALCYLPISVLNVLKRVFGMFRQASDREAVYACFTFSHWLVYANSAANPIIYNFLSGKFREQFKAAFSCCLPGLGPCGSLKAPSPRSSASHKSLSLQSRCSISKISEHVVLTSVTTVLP

Row | Compound | Ki (rat orexin 1 receptor) [nM] | Ki (human orexin 1 receptor) [nM] | Ki (human orexin 2 receptor) [nM] | Ki (rat orexin 1 receptor; [1]) [nM] | Ki (human orexin 1 receptor; [2]) [nM]
1 | Cc1nc(C(=O)N2[C@@H]3CC[C@H]2[C@H](Nc2cnc(C(F)(F)F)cn2)C3)c(-c2ccc(F)cc2)s1 [Example 244, (5-(4-fluorophenyl)-2-methylthiazol-4-yl)((1S,2R,4R)-2-((5-(trifluoromethyl)pyrazin-2-yl)amino)-7-azabicyclo[2.2.1]heptan-7-yl)methanone] | 74 | 46 | 235 |  | 
2 | Cc1cccc(C(=O)N2[C@@H]3CC[C@H]2[C@H](Nc2cnc(C(F)(F)F)cn2)C3)c1-n1nccn1 [Example 245, (3-methyl-2-(2H-1,2,3-triazol-2-yl)phenyl)((1S,2R,4R)-2-((5-(trifluoromethyl)pyrazin-2-yl)amino)-7-azabicyclo[2.2.1]heptan-7-yl)methanone] | 10 | 7 | 288 |  | 
3 | Cc1ccc(C(=O)N2[C@@H]3CC[C@H]2[C@H](Nc2cnc(C(F)(F)F)cn2)C3)c(-n2ccnn2)n1 [Example 248, (6-methyl-2-(1H-1,2,3-triazol-1-yl)pyridin-3-yl)((1S,2R,4R)-2-((5-(trifluoromethyl)pyrazin-2-yl)amino)-7-azabicyclo[2.2.1]heptan-7-yl)methanone] |  |  | > 10000 | 153 | 119
4 | COc1ccc(C(=O)N2[C@@H]3CC[C@H]2[C@H](Nc2cnc(C(F)(F)F)cn2)C3)c(-c2ncccn2)c1 [Example 249, (4-methoxy-2-(pyrimidin-2-yl)phenyl)((1S,2R,4R)-2-((5-(trifluoromethyl)pyrazin-2-yl)amino)-7-azabicyclo[2.2.1]heptan-7-yl)methanone] | 57 | 54 | 5600 |  | 
5 | O=C(c1ccc(OC(F)F)cc1-n1nccn1)N1[C@@H]2CC[C@H]1[C@H](Nc1cnc(C(F)(F)F)cn1)C2 [Example 253, (4-(difluoromethoxy)-2-(2H-1,2,3-triazol-2-yl)phenyl)((1S,2R,4R)-2-((5-(trifluoromethyl)pyrazin-2-yl)amino)-7-azabicyclo[2.2.1]heptan-7-yl)methanone] |  |  | 9600 | 155 | 152
6 | COc1ccc(-n2nccn2)c(C(=O)N2[C@@H]3CC[C@H]2[C@H](Nc2cnc(C(F)(F)F)cn2)C3)c1 [Example 255, (5-methoxy-2-(2H-1,2,3-triazol-2-yl)phenyl)((1S,2R,4R)-2-((5-(trifluoromethyl)pyrazin-2-yl)amino)-7-azabicyclo[2.2.1]heptan-7-yl)methanone] | 32 | 29 | 265 |  | 
7 | O=C(c1c(F)cccc1-n1nccn1)N1[C@@H]2CC[C@H]1[C@H](Nc1cnc(C(F)(F)F)cn1)C2 [Example 258, (2-fluoro-6-(2H-1,2,3-triazol-2-yl)phenyl)((1S,2R,4R)-2-((5-(trifluoromethyl)pyrazin-2-yl)amino)-7-azabicyclo[2.2.1]heptan-7-yl)methanone] | 42 | 48 | 690 |  | 
8 | O=C(c1cccc(F)c1-c1ncco1)N1[C@@H]2CC[C@H]1[C@H](Nc1cnc(C(F)(F)F)cn1)C2 [Example 260, (3-fluoro-2-(oxazol-2-yl)phenyl)((1S,2R,4R)-2-((5-(trifluoromethyl)pyrazin-2-yl)amino)-7-azabicyclo[2.2.1]heptan-7-yl)methanone] | 14 | 10 | 519 |  | 
9 | O=C(c1cccc(F)c1-c1cccnn1)N1[C@@H]2CC[C@H]1[C@H](Nc1cnc(C(F)(F)F)cn1)C2 [Example 262, (3-fluoro-2-(pyridazin-3-yl)phenyl)((1S,2R,4R)-2-((5-(trifluoromethyl)pyrazin-2-yl)amino)-7-azabicyclo[2.2.1]heptan-7-yl)methanone] |  |  | 4200 | 106 | 175
10 | Cc1cccc(C(=O)N2[C@@H]3CC[C@H]2[C@H](Nc2cnc(C(F)(F)F)cn2)C3)c1-c1cccnn1 [Example 263, (3-methyl-2-(pyridazin-3-yl)phenyl)((1S,2R,4R)-2-((5-(trifluoromethyl)pyrazin-2-yl)amino)-7-azabicyclo[2.2.1]heptan-7-yl)methanone] | 44 | 41 | 1100 |  | 
